In patent publication US8044022B2, “Hyaluronic acid binding peptides enhance host defense against pathogenic bacteria” (priority 2005, dated 2011):

Tests used:
GAS [1] = assay: Opsonophagocytic assay with human neutrophils; type: cell-based, Group A Streptococcus; conditions: 50 μg/ml, 2 hours incubation with human neutrophils, 10% absorbed human serum
Protocol: Encapsulated GAS are resistant to killing by neutrophils in opsonophagocytic assays in the absence of antibodies that bind the bacterial surface. HABPs binding to the bacterial surface may facilitate neutrophil cytotoxicity. Opsonophagocytic assays were performed wherein GAS were incubated with 50 μg/ml of SCRM, HABP01 or HABP35 and mixed with human neutrophils in medium containing 10% absorbed human serum. Aliquots (25 μl) for quantitative culture were withdrawn immediately after mixing neutrophil with GAS and after 2 hr incubation at 37° C. The log increase or decrease in CFU's was calculated. After 2 hours of incubation, there was about a 1.5 log increase in CFU's for GAS treated with PBS or SCRM.

[2] = test system: Wild Type GAS (HA encapsulated); assay: Fluorometry binding of FITC-conjugated peptide to encapsulated GAS; set-up: species or system Group A Streptococcus
Protocol: Bacterial strains: GAS strain 950771 is a moderately encapsulated M3 clinical isolate from a child with post-varicella necrotizing fasciitis and sepsis, and an isogenic capsule deficient mutant, 188, derived from 950771. GAS were grown in Todd-Hewitt broth (Difco) to mid-exponential phase OD650 of 0.15 at 37° C. for all experiments. Commercially available trypticase-soy agar medium supplemented with 5% vol/vol sheep blood (BAP)(PML Microbiologicals, British Columbia, Canada) were used for all plate cultures. S. equi s(ATCC 53185) and P. multocida (ATCC 11039) were purchased from ATCC and cultured as recommended. Briefly, S. equi was cultured in Todd-Hewitt broth and S. uberis and P. multocida were cultured in Brain heart infusion (Difco) to OD 650 of 0.15 at 37° C. Quantitative cultures were performed in parallel with each experiment to verify the multiplicity of infection (MOI) of the inoculum.
(§1) Binding of HABP to HA and HA-encapsulated bacteria: To assess whether HABP are able to associate specifically with the GAS capsule, bacteria were cultured to mid-log phase, for maximal HA capsule expression, and incubated with either 10 μg/ml of FITC-conjugated HABP01 or SCRM, with purified HA at 1 mg/ml, as a positive control, or an isogenic mutant strain of GAS deficient in HA capsule, as a negative control. A GAS-specific antibody was used to control for the number of bacteria per well.

[3] = Fluorometry binding of FITC-conjugated peptide to purified HA in well; set-up: species or system rooster
Protocol: Lyophilized synthetic peptides were resuspended in PBS pH7.4 prior to use in either in vitro or in vivo experiments. Fluorescein conjugation of HABP01 and SCRM was performed using 5,6 carboxyfluorescein, succinimidyl ester (5,6 FAM) (Molecular Probes, Portland, Oreg.) as per manufacturer's instructions and separated on a Sephadex G-25 column (Amersham, Piscataway, N.J.). Purified, high molecular weight rooster comb HA (Sigma-Aldrich, St Louis, Mo.) was used as a positive control for BP binding.
as §1

S. aureus strain PS80 = assay: Mouse model of S. aureus surgical wound infection; type: in vivo, C57BL6 mice; conditions: 100 μg into wound at time of challenge with 10^2 CFU; 3 days later
Protocol: Bacterial strains. S. aureus strain PS80 (serotype 8) was obtained from the American Type Culture collection (#27700) and is a potent inducer of intraabdominal abscess formation. S. aureus COL is a methicillin resistant strain that produces a serotype 5 capsule. Staphylococci were cultivated for 24 h at 37° C. on Columbia agar (Difco Laboratories, Detroit, Mich.) supplemented with 2% NaCl.
Mouse model of S. aureus wound infection. Mice (C57BL6, male, 6-8 wk old) were obtained from Jackson Laboratories (Bar Harbor, Me.). Groups of mice (N=4/group/experiment) were anesthetized with 100 mg/kg ketamine and 10 mg/kg xylazine, their right thighs were shaved, and the surgical area was disinfected with iodine and 70% ethanol. An incision was made in the skin to expose the thigh muscle, and a 1-cm incision was made with a scalpel into the thigh muscle to the depth of the bone. The muscle was then closed with one 4-0 silk suture, and 10 μl of a S. aureus suspension ranging in dose from 10^2 to 10^4 CFU was introduced into the incision under the suture. The skin was closed with four additional Prolene sutures. The mice were euthanized at 3 days post-surgery. The wounded muscle tissue was excised, weighed (˜0.08 g), and homogenized in 1 ml of tryptic soy broth. Serial dilutions of the homogenates were plated in duplicate and results were expressed as CFU/g tissue. Peptides were administered to animals in two ways. For most experiments, HABPs were solubilized in PBS and administered with a pipet into the wound in a 10 μl volume following challenge with bacteria. A 100 μg dose was used for most experiments. For therapeutic studies, peptide was administered via a 1 ml tuberculin syringe fitted with a 25 gauge needle in a 0.25 ml volume injected into the thigh muscle containing the wound distal from the incision site.
Gross pathology and histologic analysis of host response. […] Histological examination of these wounds confirmed these findings. Muscle tissue was harvested from mice at designated intervals post-surgery, fixed in 10% buffered formalin, and mounted in paraffin; 5 to 6-μm sections were cut and stained with hematoxylin and eosin for microscopic examination. […] The cellular infiltrate was primarily comprised of PMNs and fibrin.
Statistical analyses. All animal experiments were performed at least two times and the data pooled. Comparison of S. aureus CFU/g tissue was made by the Welch modification of the unpaired Student t test (InStat, GraphPad Software, San Diego, Calif.).

GAS [4] = assay: Mouse soft tissue invasive infection model; set-up: species or system CBA/J mice; conditions: in vivo
Protocol: Mouse soft tissue invasive infection model: Female 4-6-week-old CBA/J mice (Jackson Laboratory, […].) were inoculated with GAS. Briefly, mice were anesthetized and the hair was shaved off the right flank. Approximately 1.5×10^5 cfu of GAS from an early log-phase broth culture were suspended in 50 μl of sterile PBS or HABP and inoculated just under the surface of the skin with a 27-guage needle. The animals were observed twice daily for 3-5 days. Serial tail vein bleeds were performed daily and 50 μl of blood was inoculated on BAP for enumeration of viable bacterial CFU and incubated at 37° C. for 24 hours. Animals surviving the experiment or appearing moribund at any time were euthanized and the spleen removed using aseptic technique. The spleen was homogenized in 1 ml of THB and 100 μl of homogenate plated on BAP. In some experiments animals were euthanized at various time points during infection and tissue sections from the inoculation site were prepared for histopathological examination.
HABP-treated mice repeatedly indicated a 24-hour to 48-hour delay in dissemination of bacteria from the inoculation site compared to controls. […] The delayed dissemination correlated with a reduced mortality 24 hours after infection, but once dissemination occurred, HABP-treated mice died rapidly. Histopathologic analysis of the infection site indicated typical lateral GAS dissemination. […]

HKSVSRHTSMRHSTM [SCRM, reference compound]
log increase in CFU's (GAS [1]): ~1.5 log
binding to encapsulated GAS (in words) ([2]; fluorometry, HABP35 also confocal microscopy, data not shown): did not bind
Relative binding ([2]; substrate in well: Wild Type GAS, 10 μg/ml FITC-conjugated peptide): 1550 ± 30 relative fluorescent units
binding to purified HA (in words) ([3]; fluorometry): did not bind
Relative binding ([3]; substrate in well: HA (1 mg/ml), 10 μg/ml FITC-conjugated peptide): 1520 ± 20 relative fluorescent units
bacterial burden at the wound site compared with PBS (S. aureus strain PS80): did not have this effect
PMNs at the infection site (confocal microscopy of tissue sections) (GAS [4]): numerous polymorphonuclear leukocytes
